Assay results as given in ChEMBL document CHEMBL4321794, “Discovery and Optimization of 2-Arylquinazolin-4-ones into a Potent and Selective Tankyrase Inhibitor Modulating Wnt Pathway Activity” (J Med Chem, 2019).

Assays:
[1] = Intrinsic clearance in human liver microsomes assessed per mg protein in presence of NADPH by UPLC analysis; assay type: ADME, Microsome; conditions: read-out: CLH
[2] = Thermodynamic solubility in phosphate buffer at pH 7.4 at 2 mg incubated under shaking condition for 6 hrs followed by rechecking and readjusting pH to 7.4 and further incubated for 18 hrs by HPLC/UV detection method; assay type: physicochemical; conditions: read-out: Therm_solubility
[3] = Intrinsic clearance in mouse liver microsomes assessed per mg protein in presence of NADPH by UPLC analysis; assay type: ADME, Microsome; conditions: read-out: CLH
[4] = biological target: T1, Poly [ADP-ribose] polymerase tankyrase-1 (Homo sapiens, UniProt O95271); set-up: species or system Sf9
T1 sequence (O95271 whole entry): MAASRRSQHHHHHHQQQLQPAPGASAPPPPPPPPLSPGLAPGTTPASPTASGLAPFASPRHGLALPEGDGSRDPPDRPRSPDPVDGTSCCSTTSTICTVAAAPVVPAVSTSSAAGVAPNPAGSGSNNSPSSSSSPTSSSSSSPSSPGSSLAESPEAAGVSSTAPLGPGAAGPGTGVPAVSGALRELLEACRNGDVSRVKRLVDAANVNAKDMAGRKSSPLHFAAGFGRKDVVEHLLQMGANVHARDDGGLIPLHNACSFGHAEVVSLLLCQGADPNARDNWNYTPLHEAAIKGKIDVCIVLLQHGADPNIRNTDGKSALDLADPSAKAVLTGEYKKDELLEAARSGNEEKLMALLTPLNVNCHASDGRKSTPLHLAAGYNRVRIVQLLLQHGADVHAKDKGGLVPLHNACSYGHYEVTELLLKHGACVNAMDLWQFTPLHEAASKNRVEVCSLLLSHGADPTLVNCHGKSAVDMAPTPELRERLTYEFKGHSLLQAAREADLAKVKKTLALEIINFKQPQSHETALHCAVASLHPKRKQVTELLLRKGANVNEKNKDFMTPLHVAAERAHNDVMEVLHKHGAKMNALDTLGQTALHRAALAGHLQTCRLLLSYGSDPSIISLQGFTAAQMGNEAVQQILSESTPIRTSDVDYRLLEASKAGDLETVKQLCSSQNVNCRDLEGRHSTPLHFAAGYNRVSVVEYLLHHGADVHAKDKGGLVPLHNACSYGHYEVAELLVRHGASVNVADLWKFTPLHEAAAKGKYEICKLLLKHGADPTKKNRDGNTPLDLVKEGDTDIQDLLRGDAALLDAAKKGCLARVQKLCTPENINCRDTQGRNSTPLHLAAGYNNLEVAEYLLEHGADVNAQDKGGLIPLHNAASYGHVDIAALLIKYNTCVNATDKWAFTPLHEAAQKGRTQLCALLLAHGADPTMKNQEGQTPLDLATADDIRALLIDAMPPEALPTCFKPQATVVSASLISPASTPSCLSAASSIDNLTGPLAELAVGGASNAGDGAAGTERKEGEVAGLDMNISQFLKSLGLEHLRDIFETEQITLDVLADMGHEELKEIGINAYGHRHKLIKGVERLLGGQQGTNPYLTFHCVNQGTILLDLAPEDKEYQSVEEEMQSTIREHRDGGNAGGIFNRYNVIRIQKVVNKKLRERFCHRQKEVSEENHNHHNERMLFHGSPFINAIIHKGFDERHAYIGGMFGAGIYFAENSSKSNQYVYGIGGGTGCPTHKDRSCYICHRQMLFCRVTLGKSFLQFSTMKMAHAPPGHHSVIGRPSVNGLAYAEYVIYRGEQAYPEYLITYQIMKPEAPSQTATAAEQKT

[5] = biological target: Poly [ADP-ribose] polymerase 1 (Homo sapiens, UniProt P09874); experiment: Inhibition of recombinant human full-length Myc/His-tagged Parp-1 expressed in baculovirus infected Sf21 insect cells assessed as reduction in auto-PARsylation using activated DNA as substrate incubated for 150 mins in presence of NAD and bio-NAD as co-substrate by TR-FRET assay
Poly [ADP-ribose] polymerase 1, sequence (P09874 whole entry): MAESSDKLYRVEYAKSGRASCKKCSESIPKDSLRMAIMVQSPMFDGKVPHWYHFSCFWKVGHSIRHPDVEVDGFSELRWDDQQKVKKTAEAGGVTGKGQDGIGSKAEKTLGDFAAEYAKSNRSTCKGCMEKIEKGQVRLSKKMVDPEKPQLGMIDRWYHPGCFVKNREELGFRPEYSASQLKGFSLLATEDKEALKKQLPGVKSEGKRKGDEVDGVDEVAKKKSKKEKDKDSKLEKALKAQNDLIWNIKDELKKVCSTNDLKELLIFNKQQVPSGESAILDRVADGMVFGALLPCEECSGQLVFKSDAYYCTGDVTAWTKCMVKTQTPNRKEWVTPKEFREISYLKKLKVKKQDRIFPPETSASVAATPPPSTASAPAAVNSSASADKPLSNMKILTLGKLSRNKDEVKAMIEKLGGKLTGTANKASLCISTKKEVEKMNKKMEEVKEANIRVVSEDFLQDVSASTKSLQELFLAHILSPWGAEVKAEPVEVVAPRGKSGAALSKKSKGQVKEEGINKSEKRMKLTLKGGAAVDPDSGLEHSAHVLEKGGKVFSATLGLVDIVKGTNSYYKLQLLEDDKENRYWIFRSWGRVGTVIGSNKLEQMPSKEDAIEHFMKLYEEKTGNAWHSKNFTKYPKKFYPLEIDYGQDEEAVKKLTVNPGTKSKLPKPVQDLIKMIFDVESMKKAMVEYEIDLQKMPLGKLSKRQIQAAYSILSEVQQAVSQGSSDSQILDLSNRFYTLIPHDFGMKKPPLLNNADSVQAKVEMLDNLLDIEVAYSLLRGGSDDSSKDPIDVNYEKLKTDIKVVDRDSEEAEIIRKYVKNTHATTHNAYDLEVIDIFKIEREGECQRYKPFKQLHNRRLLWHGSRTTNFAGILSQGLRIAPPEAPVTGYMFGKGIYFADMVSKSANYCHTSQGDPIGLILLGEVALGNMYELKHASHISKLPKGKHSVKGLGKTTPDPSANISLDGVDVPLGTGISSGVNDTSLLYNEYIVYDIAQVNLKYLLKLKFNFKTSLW

[6] = biological target: Voltage-gated inwardly rectifying potassium channel KCNH2 (Homo sapiens, UniProt Q12809); experiment: Inhibition of human ERG expressed in HEK293 cells at -80 mV holding potential by whole cell patch clamp method; assay type: cell-based
Voltage-gated inwardly rectifying potassium channel KCNH2, sequence (Q12809 whole entry): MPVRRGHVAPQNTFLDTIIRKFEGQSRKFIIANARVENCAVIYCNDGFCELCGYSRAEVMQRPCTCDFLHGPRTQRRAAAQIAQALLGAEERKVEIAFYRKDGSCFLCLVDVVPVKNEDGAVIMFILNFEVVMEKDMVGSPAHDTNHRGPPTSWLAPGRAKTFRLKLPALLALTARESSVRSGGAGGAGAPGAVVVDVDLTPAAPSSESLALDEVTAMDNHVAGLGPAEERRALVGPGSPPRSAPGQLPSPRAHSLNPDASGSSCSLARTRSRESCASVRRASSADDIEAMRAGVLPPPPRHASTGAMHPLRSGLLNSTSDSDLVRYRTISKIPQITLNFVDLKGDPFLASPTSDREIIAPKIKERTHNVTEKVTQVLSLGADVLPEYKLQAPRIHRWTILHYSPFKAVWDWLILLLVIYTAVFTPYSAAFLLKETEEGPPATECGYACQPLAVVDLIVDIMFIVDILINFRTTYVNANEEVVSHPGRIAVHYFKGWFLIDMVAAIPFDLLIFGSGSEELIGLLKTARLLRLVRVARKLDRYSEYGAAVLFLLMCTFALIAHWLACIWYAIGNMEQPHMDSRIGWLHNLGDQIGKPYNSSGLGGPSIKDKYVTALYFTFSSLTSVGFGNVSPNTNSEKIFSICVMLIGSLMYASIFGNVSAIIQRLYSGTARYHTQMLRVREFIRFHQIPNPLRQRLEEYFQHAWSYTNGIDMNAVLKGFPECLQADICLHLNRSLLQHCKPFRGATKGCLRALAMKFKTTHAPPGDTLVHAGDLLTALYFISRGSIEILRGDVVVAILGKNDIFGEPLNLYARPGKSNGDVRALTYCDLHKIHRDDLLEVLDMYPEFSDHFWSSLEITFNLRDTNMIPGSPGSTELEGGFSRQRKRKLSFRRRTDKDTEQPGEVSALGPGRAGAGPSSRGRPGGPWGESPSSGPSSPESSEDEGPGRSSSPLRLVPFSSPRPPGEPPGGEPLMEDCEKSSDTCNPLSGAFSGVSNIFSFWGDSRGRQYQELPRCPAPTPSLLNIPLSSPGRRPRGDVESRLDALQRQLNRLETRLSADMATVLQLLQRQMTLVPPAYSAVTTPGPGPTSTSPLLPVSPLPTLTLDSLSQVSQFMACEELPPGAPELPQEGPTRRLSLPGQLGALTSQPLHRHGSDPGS

microsomal CLint [1]: < 10 µL/min/mg
solubility thermodynamic at 24 h [2]: 44 µg/mL
microsomal CLint [3]: 77 µL/min/mg
IC50 [4]: 1.3 nM
IC50 [5]: 390 nM
SMILES: Cc1cc(F)cc2c(=O)[nH]c(-c3ccc(C4CCNCC4)cc3)nc12.Cl
Ki [6]: 6800 nM
